Patent US6043357A, “HIV protease inhibitors” (The University of Queensland, priority 1994, dated 2000)
Read-outs that look alike come from different tables or passages of the source.

Target: HIV-1 protease (Human immunodeficiency virus type 1 group M subtype B, UniProt P03369)
Assay: biochemical
Experimental: HIV-1 protease activity was measured at 37° C. using a continuous fluorimetric assay based on the method of Toth et al., (Toth et al., 1990, Int. J. Pept. Res. 36 544-550). The substrate, 2-aminobenzoyl-threonine-isoleucine-norleucine-(p-nitro)-phenylalanine-glutamine-arginine-NH2 (Abz-NF^* -6), was synthesised by solid phase peptide synthesis (Kent et al., 1991, In: Peptides 1990: Proceedings of the Twenty-First European Peptide Symposium (Girault, E. and Andrew, D. eds.) pp 172-173, ESCOM, Leiden). Enzyme activity was measured as the increase in fluorescence intensity upon substrate hydrolysis. The change in fluorescence intensity was monitored with a Perkin Elmer LS50B luminescence spectrometer fitted with a thermostatted micro cuvette holder. Measurements were carried out using an excitation wavelength of 320 nm (bandwith 5 nm) and an emission wavelength of […] (bandwith 5 nm).
Inhibition assays were routinely carried out at pH 6.5 and μ=0.1 M using a single substrate concentration. The assay mixtures contained 50 μM Abz-NF^* -6 in 100 mM 2-(N-morpholino)ethanesulphonate buffer, containing 10% (v/v) glycerol and 50 μg/ml bovine serum albumin, in a total final volume of 400 μl. Where inhibitors had to be dissolved in dimethyl sulphoxide or other organic solvents, the final concentration of solvent in the control and inhibition assays were kept absolutely constant because of the severe inhibitory effect of some solvents on the enzyme activity (Bergman et al., 1992, 17th Ann. Lorne Conf. on Protein Struct. and Funct. Abstr.). In all assays, the reaction was initiated by the addition of 10 μl of enzyme solution.

[1] = Table 1, pH 6.5, 37° C., read-out: IC50
[2] = Table 2, pH 6.5, 37° C., read-out: IC50

`CC[C@H](C)[C@H](NC(=O)[C@@H]1CCCN1C[C@@H](O)[C@@H]1Cc2ccc(cc2)OCCCC(=O)N[C@@H](CC(N)=O)C(=O)N1)C(=O)N[C@H](C(N)=O)C(C)C` [Compound 2] was tested, and the IC50 was 1.58 µM.
`CC[C@H](C)[C@H](NC(=O)[C@@H]1CCCN1C[C@H](O)[C@@H]1Cc2ccc(cc2)OCCCC(=O)N[C@@H](CC(N)=O)C(=O)N1)C(=O)N[C@H](C(N)=O)C(C)C` [Compound 3, [2(S),11'(S),8'(S)]-2-[11'-[6',9'-dioxo-8'-(ethanamide)-2'-oxa-7',10'-diazabicyclo[11.2.2]heptadeca-13',15',16'-triene]]-1-(N-(S)-prolyl-(S)-isoleucyl-(S)-valine amide)ethan-2-ol] was tested, and the IC50 was 0.039 µM and the “protease inhibition, stated in words” value was “successfully functionally mimicked compound 1”.
For `CC[C@H](C)[C@H](NC(=O)[C@@H]1CCCN1C[C@@H](O)[C@@H]1Cc2ccc(cc2)OCCCC(=O)N[C@@H](CC(N)=O)C(=O)N1)C(N)=O` [Compound 4], the IC50 (read-out: IC50) was 9.5 µM.
`CC[C@H](C)[C@H](NC(=O)[C@@H]1CCCN1C[C@H](O)[C@@H]1Cc2ccc(cc2)OCCCC(=O)N[C@@H](CC(N)=O)C(=O)N1)C(N)=O` [Compound 5] was tested, and the “protease inhibition, stated in words” value was “reduced potency” and the IC50 (read-out: IC50) was 0.85 µM.
With `NC(=O)C[C@@H]1NC(=O)CCCOc2ccc(cc2)C[C@@H]([C@H](O)CN2CCC[C@H]2C(N)=O)NC1=O` [Compound 6] the IC50 [1] was 55 µM.
With `NC(=O)C[C@@H]1NC(=O)CCCOc2ccc(cc2)C[C@@H]([C@@H](O)CN2CCC[C@H]2C(N)=O)NC1=O` [Compound 7] the “protease inhibition, stated in words” value was “reduced potency” and the IC50 [1] was 120 µM.
With `CC[C@H](C)[C@H](NC(=O)[C@@H]1CCCN1C[C@@H](O)[C@@H]1Cc2ccc(cc2)OCCNCC(=O)N[C@@H](CC(N)=O)C(=O)N1)C(=O)N[C@H](C(N)=O)C(C)C` [Compound 8] the IC50 [1] was 0.7 µM.
`CC[C@H](C)[C@H](NC(=O)[C@@H]1CCCN1C[C@H](O)[C@@H]1Cc2ccc(cc2)OCCNCC(=O)N[C@@H](CC(N)=O)C(=O)N1)C(=O)N[C@H](C(N)=O)C(C)C` [Compound 9] gave an IC50 [1] of 0.037 µM.
With `CC[C@H](C)[C@H](NC(=O)[C@@H]1CCCN1C[C@@H](O)[C@@H]1Cc2ccc(cc2)OCC(O)C(O)C(=O)N[C@@H](CC(N)=O)C(=O)N1)C(=O)N[C@H](C(N)=O)C(C)C` (stereo partly shown) [Compound 10] the “protease inhibition, stated in words” value was “no improvement was observed in potency compared to 3 or 9” and the IC50 [1] was 0.6 µM.
For `CC[C@H](C)[C@H](NC(=O)[C@@H]1CCCN1C[C@H](O)[C@@H]1Cc2ccc(cc2)OCC(O)C(O)C(=O)N[C@@H](CC(N)=O)C(=O)N1)C(=O)N[C@H](C(N)=O)C(C)C` (stereo partly shown) [Compound 11], the “protease inhibition, stated in words” value was “no improvement was observed in potency compared to 3 or 9” and the IC50 [1] was 0.049 µM.
With `CC[C@H](C)[C@H](NC(=O)[C@@H]1CCCN1C[C@@H](O)[C@@H]1Cc2ccc(cc2)OCCCCC(=O)N[C@@H](CC(N)=O)C(=O)N1)C(=O)N[C@H](C(N)=O)C(C)C` [Compound 12] the IC50 [2] was 0.165 µM.
In the case of `CC[C@H](C)[C@H](NC(=O)[C@@H]1CCCN1C[C@H](O)[C@@H]1Cc2ccc(cc2)OCCCCC(=O)N[C@@H](CC(N)=O)C(=O)N1)C(=O)N[C@H](C(N)=O)C(C)C` [Compound 13], the “protease inhibition, stated in words” value is reported as “no dramatic increase in potency” and the IC50 [2] is reported as 0.026 µM.
For `CCOC(=O)CCCOc1ccc(C[C@H](NC(=O)[C@H](CC(N)=O)NC(C)=O)[C@H](O)CN2CCC[C@H]2C(=O)N[C@H](C(=O)N[C@H](C(N)=O)C(C)C)[C@@H](C)CC)cc1` [Compound 14], the “protease inhibition, stated in words” value was “slightly reduced potency” and the IC50 [2] was 0.35 µM.
With `CCOC(=O)CCCOc1ccc(C[C@H](NC(=O)[C@H](CC(N)=O)NC(C)=O)[C@@H](O)CN2CCC[C@H]2C(=O)N[C@H](C(=O)N[C@H](C(N)=O)C(C)C)[C@@H](C)CC)cc1` [Compound 15] the “protease inhibition, stated in words” value was “slightly reduced potency” and the IC50 [2] was 0.045 µM.
`CC[C@H](C)[C@H](NC(=O)[C@@H]1CCCN1C[C@@H](O)[C@@H]1CSSCC(NC(C)=O)C(=O)NCC(=O)N[C@@H](CC(N)=O)C(=O)N1)C(=O)N[C@H](C(N)=O)C(C)C` (stereo partly shown) [Compound 16] was tested, and the “protease inhibition, stated in words” value was “activity was instead reduced” and the IC50 [2] was 122 µM.
For `CC[C@H](C)[C@H](NC(=O)[C@@H]1CCCN1C[C@H](O)[C@@H]1CSSCC(NC(C)=O)C(=O)NCC(=O)N[C@@H](CC(N)=O)C(=O)N1)C(=O)N[C@H](C(N)=O)C(C)C` (stereo partly shown) [Compound 17], the “protease inhibition, stated in words” value was “activity was instead reduced” and the IC50 [2] was 28 µM.
With `CC[C@H](C)[C@H](NC(=O)[C@@H]1CCCN1C[C@H](O)[C@@H]1Cc2ccc(cc2)OCC(=O)N[C@@H](Cc2ccc(O)cc2)C(=O)N[C@@H](CC(N)=O)C(=O)N1)C(=O)N[C@H](C(N)=O)C(C)C` [Compound 18] the IC50 was 0.038 µM.
Work on `CC[C@H](C)[C@H](NC(=O)[C@@H]1CCCN1C[C@@H](O)[C@@H]1Cc2ccc(cc2)OCC(=O)N[C@@H](Cc2ccc(O)cc2)C(=O)N[C@@H](CC(N)=O)C(=O)N1)C(=O)N[C@H](C(N)=O)C(C)C` [Compound 19] yielded an IC50 of 0.165 µM.
Work on `CC[C@H](C)[C@H](NC(=O)[C@@H]1CCCN1C[C@H](O)[C@@H]1Cc2ccc(cc2)OCC(=O)N[C@@H](Cc2cnc[nH]2)C(=O)N[C@@H](CC(N)=O)C(=O)N1)C(=O)N[C@H](C(N)=O)C(C)C` [Compound 20] yielded an IC50 (pH 6.5) of 0.026 µM.
`CC[C@H](C)[C@H](NC(=O)[C@@H]1CCCN1C[C@@H](O)[C@@H]1Cc2ccc(cc2)OCC(=O)N[C@@H](Cc2cnc[nH]2)C(=O)N[C@@H](CC(N)=O)C(=O)N1)C(=O)N[C@H](C(N)=O)C(C)C` [Compound 21] showed an IC50 (pH 6.5) of 0.339 µM.
`CC[C@H](C)[C@H](NC(=O)[C@@H]1CCCN1C[C@H](O)[C@@H]1Cc2ccc(cc2)OCC(=O)N[C@@H](CCCNC(=N)N)C(=O)N[C@@H](CC(N)=O)C(=O)N1)C(=O)N[C@H](C(N)=O)C(C)C` [Compound 22] gave an IC50 (pH 6.5) of 0.042 µM.
`CC[C@H](C)[C@H](NC(=O)[C@@H]1CCCN1C[C@@H](O)[C@@H]1Cc2ccc(cc2)OCC(=O)N[C@@H](CCCNC(=N)N)C(=O)N[C@@H](CC(N)=O)C(=O)N1)C(=O)N[C@H](C(N)=O)C(C)C` [Compound 23] gave an IC50 (pH 6.5) of 0.049 µM.
With `CC[C@H](C)[C@H](NC(=O)[C@@H]1CCCN1C[C@@H](O)[C@@H]1Cc2ccc(cc2)OCC(=O)N[C@H](CCC(N)=O)C(=O)N[C@@H](CC(N)=O)C(=O)N1)C(=O)N[C@H](C(N)=O)C(C)C` [Compound 24] the IC50 was 0.04 µM.
Compound `CC[C@H](C)[C@H](NC(=O)[C@@H]1CCCN1C[C@H](O)[C@@H]1Cc2ccc(cc2)OCC(=O)N[C@H](CCC(N)=O)C(=O)N[C@@H](CC(N)=O)C(=O)N1)C(=O)N[C@H](C(N)=O)C(C)C` [Compound 25] has an IC50 of 0.04 µM.
`CC(C)CN(CC(=O)NC(C)(C)C)C[C@@H](O)[C@@H]1Cc2ccc(cc2)OCCCC(=O)N[C@@H](CC(N)=O)C(=O)N1` [Compound 26] was tested, and the “protease inhibition, stated in words” value was “only μM instead of nM” and the IC50 (read-out: IC50) was 1.7 µM.
For `CC(C)CN(CC(=O)NC(C)(C)C)C[C@H](O)[C@@H]1Cc2ccc(cc2)OCCCC(=O)N[C@@H](CC(N)=O)C(=O)N1` [Compound 27], the “protease inhibition, stated in words” value was “only μM instead of nM” and the IC50 (read-out: IC50) was 1.9 µM.
Compound `CC(C)(C)NC(=O)CN(Cc1ccccc1)C[C@@H](O)[C@@H]1Cc2ccc(cc2)OCCCC(=O)N[C@@H](CC(N)=O)C(=O)N1` [Compound 28] has an IC50 of 1.5 µM.
With `CC(C)(C)NC(=O)CN(Cc1ccccc1)C[C@H](O)[C@@H]1Cc2ccc(cc2)OCCCC(=O)N[C@@H](CC(N)=O)C(=O)N1` [Compound 29] the IC50 was 46 µM.
